Measured values reported in patent US20060116325A1, “Methods and compositions for inhibiting hiv-coreceptor interactions” (priority 2001, published 2006).

Legend:
[1] = tested on: HIV-1JRFL; assay: HIV-1JRFL infection of monocyte-derived macrophages, p24 ELISA; format: cell-based; settings: for concentration at which significant inhibition of infection was exhibited (as low as): HIV-1JRFL, monocyte-derived macrophages; for inhibition of HIV-1JRFL infection of monocyte-derived macrophages (p24): peptide 1 hr before virus, p24 after 72 hr, FIG. 3
Procedure: Monocyte-derived macrophages were treated with the designated concentrations of the indicated peptide for a period of 1 hr prior to addition of HIV-1JRFL. After 2 hr, cells were washed, and viral replication was determined after 72 hr by p24 analysis. Results are representative of 4 independent experiments.
PBMCs were obtained from whole blood of normal donors and isolated by Ficoll-Paque Plus (Pharmacia Biotech, Piscataway, N.J.) density gradient centrifugation, and plated at a cell density of 2×10^6 cells/ml. Monocyte-derived macrophages (MDM) were generated from adherent human peripheral blood mononuclear cells by culture for 7 days with M-CSF (100 ng/ml). Cultures were maintained in RPMI-1640 medium (Life Technologies, Rockville, Md.) supplemented with 10% heat-inactivated endotoxin-free FCS (Hyclone, Logan, Utah), 10 μg/ml gentamicin, and 1 mM glutamine. Cells were treated with designated concentrations of the exemplary peptides 15K or 15D, and after 1 hr cells were infected with HIV-1IIIB (T cell tropic) or HIV-1JRFL (monocyte tropic) at an multiplicity of infection (MOI) of 0.1. After 2 hr, cells were washed, and cultured for additional 48-72 hr, followed by analysis of HIV replication as determined by quantification of accumulated p24 in the supernatant. The production of p24 was determined by conventional sandwich ELISA, using ELISA plates pre-coated with capture anti-p24 antibodies provided by the AIDS Vaccine Program (SAIC Frederick, NCI-FCRDC, Frederick, Md.). The captured p24 antigen was detected using rabbit anti-HIV-1 anti-p24 antibody, and a secondary goat anti-rabbit IgG (peroxidase-labeled) antibody. The captured p24 protein was detected using a 3,3′,5,5′-tetramethylbenzidine and hydrogen peroxide detection system (KPL Laboratories, Gaithersburg, Md.). The reaction was read spectrophotometrically at 450 nm. No cytotoxicity was detectable following treatment of PBMC with the peptides even at a concentration of 100 μg/ml.
The results described in the preceding Examples indicate that the 15K and 15D peptides effectively block the ability of CCR5 to serve as a receptor to mediate chemotactic responses. Additional experiments were thus carried out to determine the capacity of these peptides to inhibit coreceptor activity mediating cellular entry and infection by HIV-1JRFL (a monocyte-tropic HIV strain), using peripheral blood monocyte-derived macrophages.

[2] = biological target: CXCR4 (Homo sapiens, UniProt P61073); assay: Binding of anti-CXCR4 antibody 12G5 to CEMx174 cells (flow cytometry); set-up: host or cells: CEMx174 (174xCEM); settings: for inhibition of 12G5 antibody binding to CXCR4: CEMx174 cells, preincubation 60 min 22° C., FIG. 5
Sequence of CXCR4 (P61073 whole entry): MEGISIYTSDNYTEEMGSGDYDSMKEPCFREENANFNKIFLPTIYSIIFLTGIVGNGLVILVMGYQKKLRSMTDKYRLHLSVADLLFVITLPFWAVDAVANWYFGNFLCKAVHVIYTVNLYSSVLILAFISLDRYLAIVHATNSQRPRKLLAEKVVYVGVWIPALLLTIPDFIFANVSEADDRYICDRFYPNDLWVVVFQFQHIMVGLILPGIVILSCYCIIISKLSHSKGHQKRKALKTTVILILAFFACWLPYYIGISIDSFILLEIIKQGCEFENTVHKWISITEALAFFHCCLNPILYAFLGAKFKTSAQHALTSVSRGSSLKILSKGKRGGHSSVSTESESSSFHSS
Procedure: FIG. 5A. Dose dependent effect of peptide 15K in comparison with SDF-1α. FIG. 5B. The comparison of the effects of 15K and 15D. FIG. 5C. The comparison of the effects of 15K and 15KS. Cells were preincubated at 22° C. with peptides at designated concentrations of SDF-1α for 60 min. Then cells were incubated with FITC-labeled anti-human CXCR4 monoclonal antibodies 12G5 for 40 min at 22° C. and washed with FACS buffer prior to flow cytometry.
CEMx174 cells were pelleted and resuspended at 10^6 cells/ml in PBS containing 1% BSA and 0.1% sodium azide (FACS buffer). Cells were then preincubated with designated concentrations of peptides or SDF-1-α (1 μg/ml) at 22° C. for 60 min. FITC-labeled anti-human CXCR4 antibody (clone 12G5, BD PharMingen, San Diego, Calif.) was added to the cells per the manufactures instructions and further incubated at 22° C. for 40 minutes. Cells were extensively washed with FACS buffer and analyzed using a FACS Calibur flowcytometer (Becton Dickinson). HEK/CCR5 cells were suspended in Dulbecco's PBS containing 1% FCS and 0.05% NaN3 (10^4 cells in 100 μl) and incubated with or without 5 μg of MIP-1β (PeproTech, Rocky Hill, N.J.), 0.1 mM peptide 15D or 15K for 45 min at 22° C. Cells were then treated with FITC-conjugated anti-human CCR5 antibody (2D7; BD PharMingen, San Diego, Calif.), and incubated for 30 min at 22° C. Cells were washed twice, and analyzed using a FACScan flow cytometer (Becton Dickinson Immunocytometry Systems, San Jose, Calif.).
To determine if peptides 15D and 15K interact directly with chemokine receptors the effect of these and control peptides on the binding of anti-chemokine receptor antibodies to CXCR4 and CCR5 was studied. The monoclonal antibody 12G5 recognizes a conformational extracellular epitope on CXCR4. This antibody blocks the infectivity of some X4 strains of HIV-1 and HIV-2 (Endres et al., Cell 87:745-756, 1996; Hoxie et al., J. Reprod. Immunol. 41:197-211(1998); McKnight et al., J. Virol. 74:1692-1696(1997), 19, 26). […] Further, the binding of 12G5 to CXCR4 receptor-expressing cells is prevented by anti-HIV compounds. […] 73:2752-2761, 1999. To determine the importance of the particular amino acid sequence of the inhibitory activity of the peptides. The effects of peptide 15K and the corresponding scrambled peptide 15KS on binding of 12G5 to CXCR4 was compared. […] Apparently there is a direct correlation between the ability of 15K to inhibit the anti-CXCR4 antibody binding and its ability to inhibit HIV-1 infectivity since the scrambled peptide 15KS with the same amino acid comparison has reduced ability to manifest both these activities.

[3] = biological target: CCR5 (Homo sapiens, UniProt P51681); assay: Chemotaxis of HEK-CCR5 cells to RANTES (microchemotaxis chamber); format: cell-based; set-up: expressed in transfected cells; host or cells: HEK-293; settings: for inhibition of RANTES-directed chemotactic response / induction of chemotaxis by peptide alone: HEK-CCR5 cells; for inhibition of RANTES-directed chemotactic response: RANTES 100 ng/ml, 3 hr; for induction of chemotaxis by peptide alone: tested at any concentration
Sequence of CCR5 (P51681 whole entry): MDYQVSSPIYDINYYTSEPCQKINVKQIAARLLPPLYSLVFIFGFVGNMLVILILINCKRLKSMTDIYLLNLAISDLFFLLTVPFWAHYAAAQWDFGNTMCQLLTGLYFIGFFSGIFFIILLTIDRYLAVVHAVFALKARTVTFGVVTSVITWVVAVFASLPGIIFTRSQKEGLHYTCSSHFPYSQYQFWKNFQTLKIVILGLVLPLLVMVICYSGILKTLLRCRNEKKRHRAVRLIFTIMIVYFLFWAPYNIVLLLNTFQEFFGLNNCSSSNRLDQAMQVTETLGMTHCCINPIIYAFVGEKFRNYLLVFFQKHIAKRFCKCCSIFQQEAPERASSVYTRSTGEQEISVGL
Procedure: Migration of HEK-CCR5 cells to RANTES alone, or the combination of RANTES and designated concentrations of either 15K or 15D peptides, were determined in micro-chemotaxis chambers. […] The results are representative of three independent experiments. *p<0.05.
Chemotaxis assays for HEK-293 cells transfected with CCRS was performed as previously described (Howard et al., J. Biol. Chem. 274:16228-16234, 1999, incorporated herein by reference). Briefly, the chemokine RANTES, diluted in binding medium to 100 ng/ml, was placed in the lower wells of a microchemotaxis chamber. Polycarbonate membrane pretreated with rat tail collagen type 1 was placed over the chemokine solution. The cells (1×10^6/ml) were suspended in binding medium along with the exemplary peptides 15D or 15K at designated concentrations and placed in the upper wells of the chamber. After incubation for 3 hr the membrane was removed, stained using a Diff-Quik kit (Trends Scientific, Kalamazoo, Mich.) and counted. The results are expressed as the “chemotaxis index”, which represents the ratio of the number of cells in high powered field in test versus control samples.
To achieve this goal, the capacity of these peptides to inhibit the chemotactic response of HEK-CCR5 cells to a cognate ligand of CCR5 receptors, the chemokine RANTES, was assayed.

| Substance | concentration at which significant inhibition of infection was exhibited (as low as) [1] [ng/mL] | inhibition of HIV-1JRFL infection of monocyte-derived macrophages (p24) [1] | inhibition of 12G5 antibody binding to CXCR4 [2] | inhibition of 12G5 antibody binding compared with SDF-1α ([2]; peptide at 50 μg/ml versus SDF-1α, FIG. 5A) | inhibition of RANTES-directed chemotactic response ([3]; FIG. 2) | induction of chemotaxis by peptide alone [3] | inhibitory activity on chemotaxis, one peptide compared with the other ([3]; 15D versus 15K, FIG. 2) |
| --- | --- | --- | --- | --- | --- | --- | --- |
| IRKAHCNISRAKWND [Peptide 15K] | 10 | significantly reduced monocyte lineage target cell infection | inhibited the binding of the 12G5 antibody to CXCR4 in a dose-dependent manner | approached the efficacy of SDF-1α | completely blocked | did not induce detectable chemotaxis |  |
| I R K A H C N I S R A D W N D [Peptide 15D] | 10 | significantly reduced monocyte lineage target cell infection | less effective |  | completely blocked | did not induce detectable chemotaxis | consistently exhibited greater inhibitory activity |
